Laboratory results as given in US7906507B2, “Oxadiazoanthracene compounds for the treatment of diabetes” (TransTech Pharma, Inc., priority 2008, dated 2011).

Biological target: T1, cloned human GLP-1 receptor (Homo sapiens, UniProt P43220)
T1 construct: expressed in transfected cells; host or cells: CHO or HEK-293 cells
Test: Functional cell-based assay: cAMP functional assay
Conditions: for Emax: 0.5 h, percentage relative to maximal GLP-1-induced cAMP accumulation, na = not active in the assay, read-out: % activation
Method in brief: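 Monolayer cells incubated 30 min at 37 °C with compounds (0.0001–100 μM) in IMDM containing 100 μM RO 20-1724 PDE inhibitor, 0.1% BSA and 2% DMSO. cAMP measured by HTRF.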

T1 sequence (P43220 24-463): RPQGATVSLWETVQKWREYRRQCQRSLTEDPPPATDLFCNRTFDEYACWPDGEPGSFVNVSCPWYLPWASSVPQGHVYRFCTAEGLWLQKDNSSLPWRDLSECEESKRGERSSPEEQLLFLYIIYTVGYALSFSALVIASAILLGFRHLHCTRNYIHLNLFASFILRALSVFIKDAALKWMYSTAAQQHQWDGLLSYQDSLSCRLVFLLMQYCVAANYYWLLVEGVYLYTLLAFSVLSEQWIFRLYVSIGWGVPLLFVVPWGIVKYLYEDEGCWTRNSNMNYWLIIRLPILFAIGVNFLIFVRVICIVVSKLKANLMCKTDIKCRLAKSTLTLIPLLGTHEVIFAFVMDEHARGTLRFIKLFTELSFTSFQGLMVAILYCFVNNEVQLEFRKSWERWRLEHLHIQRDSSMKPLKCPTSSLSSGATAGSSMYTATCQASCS

EC50 [nM]	Emax [%]	Compound
59.3	58	CC[C@@H](c1ccccc1)N1Cc2cc3c(cc2C[C@H]1C(=O)N[C@@H](Cc1ccc(-c2ccc(C#N)cc2)cc1)C(=O)O)N(C)C(=O)[C@@H](c1ccc(OCc2ccc(Cl)c(Cl)c2)cc1)O3 [Example 86, (S)-3-(4′-Cyano-biphenyl-4-yl)-2-{[(3R,7S)-3-[4-(3,4-dichloro-benzyloxy)-phenyl]-1-methyl-2-oxo-6-((S)-1-phenyl-propyl)-2,3,5,6,7,8-hexahydro-1H-4-oxa-1,6-diaza-anthracene-7-carbonyl]-amino}-propionic acid]
64.5	82	CC[C@@H](c1ccccc1)N1Cc2cc3c(cc2C[C@H]1C(=O)N[C@@H](Cc1ccc(-c2ccc(C#N)cc2)cc1)C(=O)O)N(C)C(=O)[C@H](c1ccc(OCc2ccc(Cl)c(Cl)c2)cc1)O3 [Example 87, (S)-3-(4′-Cyano-biphenyl-4-yl)-2-{[(3S,7S)-3-[4-(3,4-dichloro-benzyloxy)-phenyl]-1-methyl-2-oxo-6-((S)-1-phenyl-propyl)-2,3,5,6,7,8-hexahydro-1H-4-oxa-1,6-diaza-anthracene-7-carbonyl]-amino}-propionic acid]
1230	43	CC[C@@H](c1ccccc1)N1Cc2cc3c(cc2C[C@H]1C(=O)N[C@@H](Cc1ccc(-c2ccc(Cl)cc2)cc1)C(=O)O)N(C)C(=O)[C@@H](c1ccc(OCc2ccc(Cl)c(Cl)c2)cc1)O3 [Example 90, (S)-3-(4′-Chloro-biphenyl-4-yl)-2-{[(3R,7S)-3-[4-(3,4-dichloro-benzyloxy)-phenyl]-1-methyl-2-oxo-6-((S)-1-phenyl-propyl)-2,3,5,6,7,8-hexahydro-1H-4-oxa-1,6-diaza-anthracene-7-carbonyl]-amino}-propionic acid]
725	39	CC[C@@H](c1ccccc1)N1Cc2cc3c(cc2C[C@H]1C(=O)N[C@@H](Cc1ccc(-c2ccc(OC)cc2)cc1)C(=O)O)N(C)C(=O)[C@@H](c1ccc(OCc2ccc(Cl)c(Cl)c2)cc1)O3 [Example 91, (S)-2-{[(3R,7S)-3-[4-(3,4-Dichloro-benzyloxy)-phenyl]-1-methyl-2-oxo-6-((S)-1-phenyl-propyl)-2,3,5,6,7,8-hexahydro-1H-4-oxa-1,6-diaza-anthracene-7-carbonyl]-amino}-3-(4′-methoxy-biphenyl-4-yl)-propionic acid]
723	30	CC[C@@H](c1ccccc1)N1Cc2cc3c(cc2C[C@H]1C(=O)N[C@@H](Cc1ccc(-c2ccc(F)cc2)cc1)C(=O)O)N(C)C(=O)[C@@H](c1ccc(OCc2ccc(Cl)c(Cl)c2)cc1)O3 [Example 92, (S)-2-{[(3R,7S)-3-[4-(3,4-Dichloro-benzyloxy)-phenyl]-1-methyl-2-oxo-6-((S)-1-phenyl-propyl)-2,3,5,6,7,8-hexahydro-1H-4-oxa-1,6-diaza-anthracene-7-carbonyl]-amino}-3-(4′-fluoro-biphenyl-4-yl)-propionic acid]
138	31	CC[C@@H](c1ccccc1)N1Cc2cc3c(cc2C[C@H]1C(=O)N[C@@H](Cc1ccc(-c2ccc(Cl)cc2)cc1)C(=O)O)N(C)C(=O)[C@H](c1ccc(OCc2ccc(Cl)c(Cl)c2)cc1)O3 [Example 93, (S)-3-(4′-Chloro-biphenyl-4-yl)-2-{[(3S,7S)-3-[4-(3,4-dichloro-benzyloxy)-phenyl]-1-methyl-2-oxo-6-((S)-1-phenyl-propyl)-2,3,5,6,7,8-hexahydro-1H-4-oxa-1,6-diaza-anthracene-7-carbonyl]-amino}-propionic acid]
424	41	CC[C@@H](c1ccccc1)N1Cc2cc3c(cc2C[C@H]1C(=O)N[C@@H](Cc1ccc(-c2ccc(OC)cc2)cc1)C(=O)O)N(C)C(=O)[C@H](c1ccc(OCc2ccc(Cl)c(Cl)c2)cc1)O3 [Example 94, (S)-2-{[(3S,7S)-3-[4-(3,4-Dichloro-benzyloxy)-phenyl]-1-methyl-2-oxo-6-((S)-1-phenyl-propyl)-2,3,5,6,7,8-hexahydro-1H-4-oxa-1,6-diaza-anthracene-7-carbonyl]-amino}-3-(4′-methoxy-biphenyl-4-yl)-propionic acid]
362	8.5	Cc1noc(C)c1S(=O)(=O)N1Cc2cc3c(cc2C[C@H]1C(=O)N[C@@H](Cc1ccc(-c2ccc(C#N)cc2)cc1)C(=O)O)N(C)C(=O)C(c1ccc(OCc2ccc(Cl)c(Cl)c2)cc1)O3 (stereo partly drawn) [Example 96, (S)-3-(4′-Cyano-biphenyl-4-yl)-2-{[(S)-3-[4-(3,4-dichloro-benzyloxy)-phenyl]-6-(3,5-dimethyl-isoxazole-4-sulfonyl)-1-methyl-2-oxo-2,3,5,6,7,8-hexahydro-1H-4-oxa-1,6-diaza-anthracene-7-carbonyl]-amino}-propionic acid]
626	42	CC[C@@H](c1ccccc1)N1Cc2cc3c(cc2C[C@H]1C(=O)N[C@H](Cc1ccc(-c2ccc(C#N)cc2)cc1)C(=O)O)N(C)C(=O)[C@@H](c1ccc(OCc2ccc(Cl)c(Cl)c2)cc1)O3 [Example 98, (R)-3-(4′-Cyano-biphenyl-4-yl)-2-{[(3R,7S)-3-[4-(3,4-dichloro-benzyloxy)-phenyl]-1-methyl-2-oxo-6-((S)-1-phenyl-propyl)-2,3,5,6,7,8-hexahydro-1H-4-oxa-1,6-diaza-anthracene-7-carbonyl]-amino}-propionic acid]

The remaining lines, values behind:

Compound	EC50 [nM]	Emax [%]
CCc1ccccc1CN1Cc2cc3c(cc2C[C@H]1C(=O)N[C@@H](Cc1ccc(-c2ccc(C#N)cc2)cc1)C(=O)O)N(C)C(=O)C(c1ccc(OCc2ccc(Cl)c(Cl)c2)cc1)O3 (stereo partly drawn) [Example 71, (S)-3-(4′-Cyano-biphenyl-4-yl)-2-{[(S)-3-[4-(3,4-dichloro-benzyloxy)-phenyl]-6-(2-ethyl-benzyl)-1-methyl-2-oxo-2,3,5,6,7,8-hexahydro-1H-4-oxa-1,6-diaza-anthracene-7-carbonyl]-amino}-propionic acid]	793	49
CN1C(=O)C(c2ccc(OCc3ccc(Cl)c(Cl)c3)cc2)Oc2cc3c(cc21)C[C@@H](C(=O)N[C@@H](Cc1ccc(-c2ccc(C#N)cc2)cc1)C(=O)O)N(C1CCCC1)C3 (stereo partly drawn) [Example 74]	327	19
CN1C(=O)C(c2ccc(OCc3ccc(Cl)c(Cl)c3)cc2)Oc2cc3c(cc21)C[C@@H](C(=O)N[C@@H](Cc1ccc(-c2ccc(C#N)cc2)cc1)C(=O)O)N(C1CCCCC1)C3 (stereo partly drawn) [Example 75, (S)-3-(4′-Cyano-biphenyl-4-yl)-2-({(S)-6-cyclohexyl-3-[4-(3,4-dichloro-benzyloxy)-phenyl]-1-methyl-2-oxo-2,3,5,6,7,8-hexahydro-1H-4-oxa-1,6-diaza-anthracene-7-carbonyl}-amino)-propionic acid]	244	20
CN1C(=O)C(c2ccc(OCc3ccc(Cl)c(Cl)c3)cc2)Oc2cc3c(cc21)C[C@@H](C(=O)N[C@@H](Cc1ccc(-c2ccc(C#N)cc2)cc1)C(=O)O)N(C1CCC1)C3 (stereo partly drawn) [Example 76, (S)-3-(4′-Cyano-biphenyl-4-yl)-2-({(S)-6-cyclobutyl-3-[4-(3,4-dichloro-benzyloxy)-phenyl]-1-methyl-2-oxo-6(1-phenyl-cyclopentylmethyl)-2,3,5,6,7,8-hexahydro-1H-4-oxa-1,6-diaza-anthracene-7-carbonyl}-amino)-propionic acid]	1140	8.12
CN1C(=O)C(c2ccc(OCc3ccc(Cl)c(Cl)c3)cc2)Oc2cc3c(cc21)C[C@@H](C(=O)N[C@@H](Cc1ccc(-c2ccc(C#N)cc2)cc1)C(=O)O)N(CC1(c2ccccc2)CCCC1)C3 (stereo partly drawn) [Example 77, (S)-3-(4′-Cyano-biphenyl-4-yl)-2-{[(S)-3-[4-(3,4-dichloro-benzyloxy)-phenyl]-1-methyl-2-oxo-6-(1-phenyl-cyclopentylmethyl)-2,3,5,6,7,8-hexahydro-1H-4-oxa-1,6-diaza-anthracene-7-carbonyl]-amino}-propionic acid]	1710	53
CC(c1ccccc1)N1Cc2cc3c(cc2C[C@H]1C(=O)N[C@@H](Cc1ccc(-c2ccc(C#N)cc2)cc1)C(=O)O)N(C)C(=O)C(c1ccc(OCc2ccc(Cl)c(Cl)c2)cc1)O3 (stereo partly drawn) [Example 80, (S)-3-(4′-Cyano-biphenyl-4-yl)-2-{[(S)-3-[4-(3,4-dichloro-benzyloxy)-phenyl]-1-methyl-2-oxo-6-(1-phenyl-ethyl)-2,3,5,6,7,8-hexahydro-1H-4-oxa-1,6-diaza-anthracene-7-carbonyl]-amino}-propionic acid]	66	16
O=C1Nc2cc3c(cc2OC1c1ccc(OCc2ccc(Cl)c(Cl)c2)cc1)CN(C(=O)c1ccccc1)[C@H](C(=O)N[C@@H](Cc1ccc(-c2ccncc2)cc1)C(=O)O)C3 (stereo partly drawn) [Example 83, (S)-2-({(S)-6-Benzoyl-3-[4-(3,4-dichloro-benzyloxy)-phenyl]-2-oxo-2,3,5,6,7,8-hexahydro-1H-4-oxa-1,6-diaza-anthracene-7-carbonyl}-amino)-3-(4-pyridin-4-yl-phenyl)-propionic acid]	710	18
O=C1Nc2cc3c(cc2OC1c1ccc(OCc2ccc(Cl)c(Cl)c2)cc1)CN(C(=O)c1ccccc1)[C@H](C(=O)N[C@@H](Cc1ccc(-c2ccc(Cl)cc2)cc1)C(=O)O)C3 (stereo partly drawn) [Example 84, (S)-2-({(S)-6-Benzoyl-3-[4-(3,4-dichloro-benzyloxy)-phenyl]-2-oxo-2,3,5,6,7,8-hexahydro-1H-4-oxa-1,6-diaza-anthracene-7-carbonyl}-amino)-3-(4′-chloro-biphenyl-4-yl)-propionic acid]	920	43
Cc1ccc(-c2ccc(C[C@H](NC(=O)[C@@H]3Cc4cc5c(cc4CN3Cc3ccccn3)OC(c3ccc(OCc4ccc(Cl)c(Cl)c4)cc3)C(=O)N5)C(=O)O)cc2)cc1 (stereo partly drawn) [Example 85, (S)-2-({(S)-3-[4-(3,4-Dichloro-benzyloxy)-phenyl]-2-oxo-6-pyridin-2-ylmethyl-2,3,5,6,7,8-hexahydro-1H-4-oxa-1,6-diaza-anthracene-7-carbonyl}-amino)-3-(4′-methyl-biphenyl-4-yl)-propionic acid]	2000	55
